Data taken from patent US12370203B2, “Pharmaceutical compositions and methods of making on demand solid dosage formulations” (Eastern Virginia Medical School, priority 2018, dated 2025).
Structures can show the parent of a compound that is named as a salt.

Tests used:
HIV = assay: Cervical vaginal (CV) tissue explant HIV infection (p24 production, AUC); format: cell-based
Text: FIGS. 1A, 1B and 1C show EVG dose response plots on p24 production.

[1] = EVG concentration in CV tissues; format: in vitro ADME
Description: FIG. 2 is a graph showing EVG concentrations in infected vs. not infected CV tissues. Median concentrations and ranges (min and max) are shown. PA=Protein adjusted. […] Based on the data, it can be extrapolated that EVG tissue concentrations of >1000 ng/g provided 100% HIV prophylaxis. (FIG. 2).

HSV = assay: Anti-HSV activity of tenofovir prodrugs; format: cell-based

For `COc1cc2c(cc1Cc1cccc(Cl)c1F)c(=O)c(C(=O)O)cn2[C@H](CO)C(C)C` [EVG, elvitegravir], the “% protection of mean AUC versus HIV control” value (shortened to “% protection”) (HIV; Co-exposure, virus and EVG added together, EVG 0.1 μg/ml) was 97.56%, the “% protection” value (HIV; Co-exposure, virus and EVG added together, EVG 1 μg/ml) was 100% and the “% protection” value (HIV; Post-exposure 4 h, EVG 0.1 μg/ml) was 86%. For the same compound, the “% protection” value (HIV; Post-exposure 4 h, EVG 1 μg/ml) was 99.56%, the “% protection” value (HIV; Post-exposure 4 h, EVG 10 μg/ml) was 100% and the “% protection” value (HIV; Post-exposure 9 h, EVG 0.1 μg/ml) was 85.85%. For the same compound, the “% protection” value (HIV; Post-exposure 9 h, EVG 1 μg/ml) was 100%, the “% protection” value (HIV; Post-exposure 9 h, EVG 10 μg/ml) was 100% and the “% protection” value (HIV; Post-exposure 14 h, EVG 10 μg/ml) was 100%. The “% protection” value (HIV; Post-exposure 24 h, EVG 10 μg/ml) was 100%, the “% protection” value (HIV; Pre-exposure 0 h, EVG 0.1 μg/ml) was 34.5% and the “% protection” value (HIV; Pre-exposure 0 h, EVG 1 μg/ml) was 99.97%. For the same compound, the “% protection” value (HIV; Pre-exposure 0 h, EVG 10 μg/ml) was 100%, the “% protection” value (HIV; Pre-exposure 7 h, EVG 0.1 μg/ml) was 21.53% and the “% protection” value (HIV; Pre-exposure 7 h, EVG 1 μg/ml) was 99.1%. For the same compound, the “% protection” value (HIV; Pre-exposure 7 h, EVG 10 μg/ml) was 100%, the “% protection” value (HIV; Pre-exposure 24 h, EVG 0.1 μg/ml) was 44.8% and the “% protection” value (HIV; Pre-exposure 24 h, EVG 1 μg/ml) was 99.51%. For the same compound, the “% protection” value (HIV; Pre-exposure 24 h, EVG 10 μg/ml) was 100%, the “EVG tissue concentration that provided 100% HIV prophylaxis” value ([1]; extrapolated from CV tissue data) was > 1000 ng/g and the “median EVG concentration in CV tissues” value ([1]; following 4 h of exposure to 1 μg/ml of EVG) was 1150 ng/g. The “median EVG concentration in CV tissues” value ([1]; following 4 h of exposure to 10 μg/ml of EVG) was 13,381 ng/g.

In the case of `CC(C)OC(=O)[C@H](C)N[P@](=O)(CO[C@H](C)Cn1cnc2c(N)ncnc21)Oc1ccccc1` [TAF, tenofovir alafenamide fumarate], the “activity against HSV” value (HSV) is reported as “most potent”.

In the case of `CC(C)OC(=O)OCOP(=O)(CO[C@H](C)Cn1cnc2c(N)ncnc21)OCOC(=O)OC(C)C` [TDF, tenofovir disoproxil fumarate], the “activity against HSV” value (HSV) is reported as “improved activity against HSV”.

With `C[C@H](Cn1cnc2c(N)ncnc21)OCP(=O)(O)O` [TFV, tenofovir] the “activity against HSV” value (HSV) was “improved activity against HSV”.

For `Nc1nc2c(ncn2COCCO)c(=O)[nH]1` [acyclovir (ACV), acyclovir], the “activity against HSV” value (HSV) was “improved activity against HSV”.
